Assay results taken from US8735398B2 (Bristol-Myers Squibb Company, priority 2009, dated 2014).
Like-named read-outs stand apart in the source and are kept apart here.

Tested on: HCV 1b genotype
Assay: HCV replicon assay (HCV-neo replicon cells, wild-type)
Assay type: cell-based, Hepatitis C virus
Conditions: HCV 1b genotype replicon
Experimental: An HCV Replicon assay was utilized in the present disclosure, and was prepared, conducted and validated as described in commonly owned PCT/US2006/022197 and in O'Boyle et al., Antimicrob. Agents Chemother, 49(4):1346-1353 (April 2005). Assay methods incorporating luciferase reporters have also been used as described (Apath.com).
HCV-neo replicon cells and replicon cells containing resistance substitutions in the NS5A region were used to test the currently described family of compounds.
The compounds were determined to have differing degrees of reduced inhibitory activity on cells containing mutations vs. the corresponding inhibitory potency against wild-type cells. Thus, the compounds of the present disclosure can be effective in inhibiting the function of the HCV NS5A protein and are understood to be as effective in combinations as previously described in application PCT/US2006/022197 and commonly owned WO 04/014852. It should be understood that the compounds of the present disclosure can inhibit multiple genotypes of HCV. […] In one embodiment, compounds of the present disclosure are inhibitory versus 1a, 1b, 2a, 2b, 3a, 4a, and 5a genotypes.

[1] = Hepatitis C virus, class symbol, read-out: EC50 Range against HCV 1b
[2] = Hepatitis C virus, read-out: EC50 1b
[3] = class symbol, read-out: EC50 Range against HCV 1b
[4] = Hepatitis C virus, class symbols, read-out: EC50 Range against HCV 1b

`O=C(Nc1ccc(-c2nnc(-c3ccc(NC(=O)[C@@H]4CCCN4C(=O)[C@@H](O)c4ccccc4)cc3)o2)cc1)[C@@H]1CCCN1C(=O)[C@@H](O)c1ccccc1` [RK-17, (2S,2′S)-N,N′-(1,3,4-oxadiazole-2,5-diyldi-4,1-phenylene)bis(1-((2S)-2-hydroxy-2-phenylacetyl)-2-pyrrolidinecarboxamide)] was tested, and the EC50 [1] was 100 to 999 nM.

Molecule `CC(C)[C@H](NC(=O)Cc1ccccc1)C(=O)Nc1ccc(-c2cnc(-c3ccc(NC(=O)[C@@H](NC(=O)Cc4ccccc4)C(C)C)cc3)o2)cc1` [JG-12, (2S,2′S)-N,N′-(1,3-oxazole-2,5-diyldi-4,1-phenylene)bis(3-methyl-2-((phenylacetyl)amino)butanamide)] has an EC50 [1] of 4.57 to 99 nM.

With `O=C(Nc1ccc(-c2nnc(-c3ccc(NC(=O)[C@@H]4CCCN4C(=O)Cc4cccs4)cc3)o2)cc1)[C@@H]1CCCN1C(=O)Cc1cccs1` [Example D-61, (2S,2′S)-N,N′-(4,4′-(1,3,4-oxadiazole-2,5-diyl)bis(4,1-phenylene))bis(1-(2-(thiophen-2-yl)acetyl)pyrrolidine-2-carboxamide)] the EC50 [1] was 100 to 999 nM and the EC50 [2] was 327 nM.

`CCOC(=O)c1cc(C(O)C(=O)N2CCC[C@H]2C(=O)Nc2ccc(-c3cnc(-c4ccc(NC(=O)[C@@H]5CCCN5C(=O)C(O)c5c[nH]c(C(=O)OCC)c5)cc4)o3)cc2)c[nH]1` (stereo partly drawn) [Example D-12, diethyl 4,4′-(2,2′-(2S,2′S)-2,2′-(4,4′-(oxazole-2,5-diyl)bis(4,1-phenylene))bis(azanediyl)bis(oxomethylene)bis(pyrrolidine-2,1-diyl)bis(1-hydroxy-2-oxoethane-2,1-diyl))bis(1H-pyrrole-2-carboxylate)] showed an EC50 [3] of 1000 to 10000 nM and an EC50 (read-out: EC50 1b) of 2360 nM.

For `Cc1nc(-c2ccc(NC(=O)[C@@H]3CCCN3C(=O)OCc3ccccc3)cc2)c(-c2ccc(NC(=O)[C@@H]3CCCN3C(=O)OCc3ccccc3)cc2)o1` [OL-5, (2S,2′S)-2,2′-[(2-methyl-4,5-oxazolediyl)bis(4,1-phenyleneiminocarbonyl)]bis-1-pyrrolidinecarboxylic acid, bis(phenylmethyl) ester], the EC50 [1] was 100 to 999 nM.

`O=C(Nc1ccc(-c2cnc(-c3ccc(NC(=O)[C@@H]4CCCN4C(=O)c4ccc[nH]4)cc3)o2)cc1)[C@@H]1CCCN1C(=O)c1ccc[nH]1` [XY-33, (2S,2′S)-N,N′-(1,3-oxazole-2,5-diyldi-4,1-phenylene)bis(1-(1H-pyrrol-2-ylcarbonyl)-2-pyrrolidinecarboxamide)] was tested, and the EC50 [4] was 1000 to 10000 nM.

Work on `O=C(Nc1ccc(-c2cnc(-c3ccc(NC(=O)[C@@H]4CCCN4C(=O)CN4C(=O)OC[C@@H]4c4ccccc4)cc3)o2)cc1)[C@@H]1CCCN1C(=O)CN1C(=O)OC[C@@H]1c1ccccc1` [JR-20, (2S,2′S)-N,N′-(2,5-oxazolediyldi-4,1-phenylene)bis[1-[[(4S)-2-oxo-4-phenyl-3-oxazolidinyl]acetyl]-2-pyrrolidinecarboxamide]] yielded an EC50 [4] of 1000 to 10000 nM.

`COc1cccc2c(C(=O)N3CCC[C@H]3C(=O)Nc3ccc(-c4ccc(-c5ccc(NC(=O)[C@@H]6CCCN6C(=O)[C@H](NC(C)=O)c6ccccc6)cc5)o4)cc3)nc(Cl)cc12` [JG-67, (2S)-1-((2R)-2-acetamido-2-phenylacetyl)-N-(4-(5-(4-((((2S)-1-((3-chloro-5-methoxy-1-isoquinolinyl)carbonyl)-2-pyrrolidinyl)carbonyl)amino)phenyl)-2-furyl)phenyl)-2-pyrrolidinecarboxamide] gave an EC50 [1] of 4.57 to 99 nM and an EC50 [2] of 5.2 nM.

`COC(C(=O)N[C@@H](C)C(=O)Nc1ccc(-c2nnc(-c3ccc(NC(=O)[C@H](C)NC(=O)C(OC)c4ccccc4)cc3)o2)cc1)c1ccccc1` (stereo partly drawn) [RK-19, (2S,2′S)-N,N′-(1,3,4-oxadiazole-2,5-diyldi-4,1-phenylene)bis(2-((methoxy(phenyl)acetyl)amino)propanamide)] gave an EC50 [1] of 100 to 999 nM.

`CC(=O)O[C@H](C(=O)N1CCC[C@H]1C(=O)Nc1ccc(-c2ccc(-c3ccc(NC(=O)[C@@H]4CCCN4C(=O)[C@@H](OC(C)=O)c4ccccc4)cc3)o2)cc1)c1ccccc1` showed an EC50 [1] of 100 to 999 nM.

In the case of `NC(=O)[C@@H]1C[C@@H]2C[C@@H]2N1C(=O)C1c2ccccc2C=CN1c1ccc(-c2ncc(-c3ccc(NC(=O)[C@@H]4C[C@@H]5C[C@@H]5N4C(=O)c4nccc5ccccc45)cc3)o2)cc1` (stereo partly drawn) [CB-2, (1S,3S,5S,1′S,3′S,5′S)-N,N′-(1,3-oxazole-2,5-diyldi-4,1-phenylene)bis(2-(1-isoquinolinylcarbonyl)-2-azabicyclo[3.1.0]hexane-3-carboxamide)], the EC50 [1] is reported as 100 to 999 nM.

`CCCC(C)(C)C(=O)N1CCC[C@H]1C(=O)Nc1ccc(-c2cnc(-c3ccc(NC(=O)[C@@H]4CCCN4C(=O)C(C)(C)CCC)cc3)o2)cc1` [XY-19, (2S,2′S)-N,N′-(1,3-oxazole-2,5-diyldi-4,1-phenylene)bis(1-(2,2-dimethylpentanoyl)-2-pyrrolidinecarboxamide)] was tested, and the EC50 [4] was 1000 to 10000 nM.

`O=C(Nc1ccc(-c2cnc(-c3ccc(NC(=O)[C@@H]4CCCN4C(=O)c4ccc5c(c4)OCO5)cc3)o2)cc1)[C@@H]1CCCN1C(=O)c1ccc2c(c1)OCO2` [XY-36, (2S,2′S)-N,N′-(1,3-oxazole-2,5-diyldi-4,1-phenylene)bis(1-(1,3-benzodioxol-5-ylcarbonyl)-2-pyrrolidinecarboxamide)] showed an EC50 [4] of 100 to 999 nM.

`CC(C)(C)O[C@@H]1C[C@@H](C(=O)Nc2ccc(-c3cnc(-c4ccc(NC(=O)[C@@H]5C[C@@H](OC(C)(C)C)CN5C(=O)C5CC5)cc4)o3)cc2)N(C(=O)C2CC2)C1` [XY-74, (2S,4R,2′S,4′R)-N,N′-(1,3-oxazole-2,5-diyldi-4,1-phenylene)bis(4-tert-butoxy-1-(cyclopropylcarbonyl)-2-pyrrolidinecarboxamide)] gave an EC50 [4] of 100 to 999 nM.

Work on `C[C@H](NC(=O)c1cc(Cl)ccn1)C(=O)Nc1ccc(-c2nnc(-c3ccc(NC(=O)[C@H](C)NC(=O)c4cc(Cl)ccn4)cc3)o2)cc1` [RK-37, N,N′-(1,3,4-oxadiazole-2,5-diylbis(4,1-phenyleneimino((2S)-1-oxo-1,2-propanediyl)))bis(4-chloro-2-pyridinecarboxamide)] yielded an EC50 [4] of 1000 to 10000 nM.

Work on `O=C(Nc1ccc(-c2cc(-c3ccc(NC(=O)[C@@H]4CCCN4C(=O)C4CC4)cc3)[nH]n2)cc1)[C@@H]1CCCN1C(=O)C1CC1` [OL-35, (2S,2′S)-N,N′-(1H-pyrazole-3,5-diyldi-4,1-phenylene)bis(1-(cyclopropylcarbonyl)-2-pyrrolidinecarboxamide)] yielded an EC50 [1] of 1000 to 10000 nM and an EC50 [2] of 8250 nM.

In the case of `O=C(Nc1ccc(-c2cnc(-c3ccc(NC(=O)[C@@H]4CCCN4C(=O)Cc4ccccc4)cc3)o2)cc1)[C@@H]1CCCN1C(=O)Cc1ccccc1` [JG-3, (2S,2′S)-N,N′-(1,3-oxazole-2,5-diyldi-4,1-phenylene)bis(1-(phenylacetyl)-2-pyrrolidinecarboxamide)], the EC50 [1] is reported as < 4.57 nM.

`O=C(Nc1ccc(-c2cnc(-c3ccc(NC(=O)[C@@H]4CCCN4C(=O)C(O)c4c[nH]c5ncccc45)cc3)o2)cc1)[C@@H]1CCCN1C(=O)C(O)c1c[nH]c2ncccc12` (stereo partly drawn) [Example D-15, (2S,2′S)-N,N′-(4,4′-(oxazole-2,5-diyl)bis(4,1-phenylene))bis(1-(2-hydroxy-2-(1H-pyrrolo[2,3-b]pyridin-3-yl)acetyl)pyrrolidine-2-carboxamide)] showed an EC50 [3] of 1000 to 10000 nM and an EC50 (read-out: EC50 1b) of 6830 nM.

`CN(C)[C@@H](C(=O)N1CCC[C@H]1C(=O)N1CCC[C@H]1C(=O)Nc1ccc(-c2cnc(-c3ccc(NC(=O)[C@@H]4CCCN4C(=O)[C@@H]4CCCN4C(=O)[C@@H](c4ccccc4)N(C)C)cc3)o2)cc1)c1ccccc1` [Example D-38, (2S,2′S)-N,N′-(1,3-oxazole-2,5-diyldi-4,1-phenylene)bis(1-(((2S)-1-((2R)-2-(dimethylamino)-2-phenylacetyl)-2-pyrrolidinyl)carbonyl)-2-pyrrolidinecarboxamide)] gave an EC50 [1] of 100 to 999 nM and an EC50 [2] of 110 nM.

In the case of `CC(C)[C@H](NC(=O)OCc1ccccc1)C(=O)Nc1ccc(-c2cnc(-c3ccc(NC(=O)[C@@H](NC(=O)OCc4ccccc4)C(C)C)cc3)o2)cc1` [JG-4, dibenzyl (1,3-oxazole-2,5-diylbis(4,1-phenyleneimino((2S)-3-methyl-1-oxo-1,2-butanediyl)))biscarbamate], the EC50 [1] is reported as 100 to 999 nM.

For `CC(=O)N1CCC[C@H]1C(=O)Nc1ccc(-c2nc(-c3ccc(NC(=O)[C@@H]4C=CCN4C(=O)c4ccno4)cc3)cs2)cc1` [Example D-50, (2S)-N-[4-[2-[4-[[[(2S)-1-acetyl-2-pyrrolidinyl]carbonyl]amino]phenyl]-4-thiazolyl]phenyl]-2,5-dihydro-1-(5-isoxazolylcarbonyl)-1H-pyrrole-2-carboxamide], the EC50 [1] was 100 to 999 nM.

`CC(=O)N1CCC[C@H]1C(=O)Nc1ccc(-c2cc(-c3ccc(NC(=O)[C@@H]4CCCN4C(=O)Cc4ccccc4)cc3)n[nH]2)cc1` [OL-36, (2S)-1-acetyl-N-(4-(3-(4-((((2S)-1-(phenylacetyl)-2-pyrrolidinyl)carbonyl)amino)phenyl)-1H-pyrazol-5-yl)phenyl)-2-pyrrolidinecarboxamide] gave an EC50 [1] of 100 to 999 nM.

`CCC(=O)N1CCC[C@H]1C(=O)Nc1ccc(-c2cc(-c3ccc(NC(=O)[C@@H]4CCCN4C(=O)CC)cc3)[nH]n2)cc1` [OL-32, (2S,2′S)-N,N′-(1H-pyrazole-3,5-diyldi-4,1-phenylene)bis(1-propionyl-2-pyrrolidinecarboxamide)] gave an EC50 [1] of 1000 to 10000 nM.

Work on `COc1cccc(CC(=O)N2CCC[C@H]2C(=O)Nc2ccc(-c3cnc(-c4ccc(NC(=O)[C@@H]5CCCN5C(=O)Cc5cccc(OC)c5)cc4)o3)cc2)c1` [XY-3, (2S,2′S)-N,N′-(1,3-oxazole-2,5-diyldi-4,1-phenylene)bis(1-((3-methoxyphenyl)acetyl)-2-pyrrolidinecarboxamide)] yielded an EC50 [4] of 100 to 999 nM and an EC50 [2] of 321 nM.
